Like-named read-outs stand apart in the source and are kept apart here.
Experiment: oral bioavailability in dogs
Assay type: in vivo, beagle dogs
Conditions: dog, 5 mg/kg
Experimental: Protocol for Oral Bioavailability
Dogs (beagle dogs, mixed sexes, weighing 7-14 kg) were fasted overnight prior to dosing, but were permitted water ad libitum. Each dog received a 100 µg/kg subcutaneous dose of histamine approximately 30 minutes prior to dosing. Each dog received a single dosage form corresponding to a 5 mg/kg dose of the drug. The dose was followed by approximately 10 milliliters of water. Blood samples were obtained from each animal prior to dosing and 0.25, 0.5, 1.0, 1.5, 2, 3, 4, 6, 8, 10, and 12 hours after drug administration. The plasma was separated from the red cells by centrifugation and frozen (-30 °C) until analysis. Concentrations of parent drug were determined by reverse phase HPLC with low wavelength UV detection following liquid-liquid extraction of the plasma samples. The parent drug area under the curve was calculated by the trapezoidal method over the time course of the study. The absolute bioavailability of each test composition as calculated by comparing the area under the curve after oral dosing to that obtained from a single intravenous dose. Each capsule or capsule composition was evaluated in a group containing at least six dogs; the values reported are averages for each group of dogs.

bioavailability (in vivo, administered as an unformulated solid in a capsule dosage form, 5 mg/kg oral dose in dogs, read-out: bioavailability) | bioavailability (both sexes, beagle, plasma, administered as an unformulated solid in a capsule dosage form, 5 mg/kg oral dose in dogs, read-out: bioavailability) | bioavailability (both sexes, beagle, plasma, solution in pharmaceutically acceptable organic solvents with long chain fatty acid, as encapsulated dosage form (soft elastic capsules or hard gelatin capsules), printed 'as high as about 60% or more', read-out: oral bioavailability) | Structure (SMILES)
< 2% | – | – | CC(C)c1nc(CN(C)C(=O)NC(C(=O)NC(Cc2ccccc2)CC(O)C(Cc2ccccc2)NC(=O)OCc2cncs2)C(C)C)cs1 (stereo not drawn) [bistosylate]
– | < 2% | ~60% | CC(C)c1nc(CN(C)C(=O)N[C@H](C(=O)N[C@@H](Cc2ccccc2)C[C@H](O)[C@H](Cc2ccccc2)NC(=O)OCc2cncs2)C(C)C)cs1 [compound of formula III]
